Assay results taken from patent publication EP0034471A1, “Piperidinoquinazolines and a process for the preparation thereof” (ORION-YHTYMÄ OY, priority 1980, dated 1981).
Counter-ions that a name gives are not always drawn.

Key:
male Wistar rats = assay: Blood pressure lowering after intravenous administration in urethane-anaesthetised rats (mean arterial pressure, femoral artery); assay type: in vivo; details: maximal decrease of the blood pressure
Protocol: The effect of the compounds when administered intravenously was studied with male Wistar rats, 240-290 g,which were anaesthetised with urethane (1.5 g/kg intraperitoneally). A heating pad which is controlled by a thermostate connected to the colonic thermistor probe was placed underneath the rats to keep the body temperature at' 38°C. The trachea was cannulated with a polyethylene tube and the rats were allowed to breathe spontaneously. A femoral vein was cannulated for intravenous injections of drugs. […] The pressure . signals were amplified with a pressure conditioner (HP […]). The mean arterial pressure was recorded on paper with a . chart recorder. […] A dose of 0.1 μmol/kg was injected intravenously and the maximal decrease of the blood pressure (mmHg) was measured.

[1] = system: Spontaneously hypertensive rats of the Okamoto-Aoki strain; assay: Blood pressure lowering after oral administration in conscious spontaneously hypertensive rats (tail cuff, systolic pressure); assay type: in vivo; details: for The decrease of the blood pressure (mmHg) induced by the dose of 0.5 µmol/rat p.o. 1h: 1 hour after administration; for The decrease of the blood pressure (mmHg) induced by the dose of 0.5 µmol/rat p.o. 2h: 2 hours after administration; for The decrease of the blood pressure (mmHg) induced by the dose of 0.5 µmol/rat p.o. 5h: 5 hours after administration

SMILES	The decrease of the blood pressure (mmHg) induced by the dose of 0.1 µmol/kg i.v. (male Wistar rats) [mmHg]	The decrease of the blood pressure (mmHg) induced by the dose of 0.5 µmol/rat p.o. 1h [1] [mmHg]	The decrease of the blood pressure (mmHg) induced by the dose of 0.5 µmol/rat p.o. 2h [1] [mmHg]	The decrease of the blood pressure (mmHg) induced by the dose of 0.5 µmol/rat p.o. 5h [1] [mmHg]
COc1cc2nc(N3CCC(C(=O)N4CCCCCC4)CC3)nc(N)c2cc1OC [1-azacycloheptyl, 2-(4-(azacyclohept-1-yl-carbonyl)piperi-dino)-4-amino-6,7-dimethoxyquinazoline hydrochloride]	47	23	27	25
COc1cc2nc(N3CCC(C(=O)N4CCCCCCC4)CC3)nc(N)c2cc1OC [1-azacyclooctyl, 2-(4-(azacyclooct-1-yl-carbonyl)piperidino-4-amino-6,7-dimethoxyquinazoline hydrochloride]	23	18	23	29
COc1cc2nc(N3CCC(C(=O)N4CCCCC4C)CC3)nc(N)c2cc1OC.Cl (stereo not shown) [2-methylpiperidino, 2-(4-(2-methylpiperidino)carbonylpiperidino)-4-amino-6,7-dimethoxyquinazoline hydrochloride]	31	15	25	28
CCN(CC)C(=O)C1CCN(c2nc(N)c3cc(OC)c(OC)cc3n2)CC1 [A(R = diethylamino), 2-(4-diethylaminocarbonylpiperidino) 4- .amino-6,7-dimethoxyquinazoline, reference compound]	37	24	16	10
COc1cc2nc(N3CCC(C(=O)N4CCOCC4)CC3)nc(N)c2cc1OC [B(R = morpholino), 2-(4-morpholinocarbonylpiperidino)-4-amino-6,7-dimethoxyquinazoline, reference compound]	30	7	5	-2
COc1cc2nc(N3CCC(C(N)=O)CC3)nc(N)c2cc1OC.Cl [amino, 2-(4-carbamoylpiperidino)-4-amino-6,7-dimethoxyquinazoline hydrochloride]	27	20	22	20
COc1cc2nc(N3CCC(C(=O)OCC(C)(C)C)CC3)nc(N)c2cc1OC.Cl [neopentyloxy, 2-(4-neopentyloxycarbonylpiperidino)-4-amino-6,7-dimethoxyquinazoline hydrochloride]	44	22	21	21
COc1cc2nc(N3CCC(C(=O)N4CCCCC4)CC3)nc(N)c2cc1OC [piperidino, 2-(4-piperidinocarbonylpiperidino)-4-amino-6,7-dimethoxyquinazoline]	32	25	22	17
COc1cc2nc(N3CCN(C(=O)c4ccco4)CC3)nc(N)c2cc1OC [prazosin, 2-(4-(2-furoyl)-piperazin-l-yl)-4-amino-6,7-dimethoxyquinazoline, reference compound]	36	26	31	24
COc1cc2nc(N3CCC(C(=O)NC(C)(C)C)CC3)nc(N)c2cc1OC.Cl [t-butylamino, 2-(4-tert-butylcarbamoylpiperidino)-4-amino-6,7-dimethoxyquinazoline hydrochloride]	28	15	25	28
